Patent US9788546B2, “Synergistic pesticidal compositions and related methods” (DOW AGROSCIENCES LLC, priority 2013, dated 2017)
Like-named read-outs stand apart in the source and are kept apart here.

What was measured:
Assay type in all cases: in vivo
[1] = tested on: brown stink bug, Euschistus heros; test: Bean piece dip bioassay, third-instar nymphs; conditions: Compound I alone, 0.04 weight %
Protocol: The active compounds were formulated in a 10% acetone solution with 0.025% non-ionic surfactant, TWEEN® 20. Bioassays were performed for each different active solution. Bean pieces (about one inch-long) were used for the tests. Four bean pieces were placed in each tested active solution and left there for 10 minutes. Bean pieces were taken out of the active solution, and each piece was placed in a well in a 32-well tray and allowed to air dry. Three third-instar nymphs of brown stink bug, Euschistus heros, were infested into each well. The percent control of the pesticidal composition against brown stink bug, Euschistus heros, was determined as the “Observed” action, and compared to those obtained by using about 0.04 weight % of compound I, and using about 0.0025 weight % of lambda-cyhalothrin alone. The “Colby's Expected Action” was calculated using Colby's equation as discussed previously.

[2] = tested on: brown stink bug, Euschistus servus (Say); test: Field test, backpack sprayer, natural stink bug infestation; conditions: Compound I alone
Protocol: (§1) Dyne-Amic at 0.625% V/V was used as an adjuvant in the tank mix, and the application was done using a backpack sprayer. Trial was conducted under a natural stink bug infestation. Numbers of adults and nymphs were counted four days after application in 1.82 meters of row per plot using a shake sheet (0.91 meters by 2 rows).
(§2) The “Colby's Expected Action” was calculated using Colby's equation as discussed previously.
as §2, §2

[3] = tested on: green stink bugs, Nezara viridula; test: as above; conditions: Compound I alone, 0.0306 weight %
Protocol: as §1, §2

[4] = tested on: brown stink bugs, Euschistus heros; test: Field spray and mesh cage test with bifenthrin, average mortality at 1, 2, 4, and 7 days; conditions: 1, 2, 4, and 7 days after treatment
Protocol: Two emulsifying concentrate pesticidal compositions with a weight ratio of compound I to bifenthrin of 1:1 were prepared. The first comprising 0.0167 weight % of compound I and about 0.0167 weight % of bifenthrin and the second comprising 0.0333 weight % compound I and 0.0333 weight % bifenthrin. The compositions were diluted and applied to the field using a spray volume of […]. The application was done using a CO2 backpack sprayer with a solid cone nozzle TXVK-8 (ConeJet). Plants were allowed to air dry and then were placed in a mesh cage where different instar stink bugs were infested in two different trials (3rd and 4th nymphal stage, and adults). Average stink bug mortality was assessed at 1, 2, 4, and 7 days after application counting the number of dead insects and calculating the percent control based on the survivorship in the untreated treatment.
The average percent control of the pesticidal composition against brown stink bugs, Euschistus heros, was determined as the “Average Observed” action, and compared to the average of those obtained by using about 0.0167 weight %, 0.0333 weight %, and 0.0667 weight % of compound I alone, and the average of those obtained using about 0.0167 weight % and 0.0333 weight % of bifenthrin alone. The “Colby's Expected Action” was calculated using Colby's equation as discussed previously. […]

[5] = tested on: brown stink bugs, Euschistus heros; test: Field spray and mesh cage test with alpha-cypermethrin, average mortality at 1 and 3 days; conditions: 1 and 3 days after treatment
Protocol: Two emulsifying concentrate pesticidal compositions with a weight ratio of compound I to alpha-cypermethrin of 1:1 were prepared. The first comprising 0.0167 weight % of compound I and about 0.0167 weight % of alpha-cypermethrin and the second comprising 0.0333 weight % compound I and 0.0333 weight % alpha-cypermethrin. The compositions were diluted and applied to the field using a spray volume of […]. The application was done using a CO2 backpack sprayer with a solid cone nozzle TXVK-8 (ConeJet). Plants were allowed to air dry and then were placed in a mesh cage where different instar stink bugs were infested (3rd and 4th nymphal stage, and adults). Average stink bug mortality was assessed at 1 and 3 days after application counting the number of dead insects and calculating the percent control based on the survivorship in the untreated.
The average percent control of the pesticidal composition against brown stink bugs, Euschistus heros, was determined as the “Average Observed” action, and compared to the average of those obtained by using about 0.0167 weight %, 0.0333 weight %, and 0.0667 weight % of compound I alone, and the average of those obtained using about 0.0167 weight % and 0.0333 weight % of alpha-cypermethrin alone. The “Colby's Expected Action” was calculated using Colby's equation as discussed previously. […]

[6] = tested on: Western flower thrips, Frankliniella occidentalis (Pergande); test: Cotton leaf punch dip bioassay, mortality of nymphs; conditions: Compound II alone, 0.04 weight %; Example 5
Protocol: The active compounds were formulated in a 10% acetone solution with 0.025% non-ionic surfactant, TWEEN® 20. Cotton leaf punches were used for bioassays. Two cotton leaf punches were placed in each solution and left there for 10 minutes. Leaves were taken out of the solution, placed on a piece of filter paper in separated Petri dishes, and air dried. Each leaf disc was considered a repetition. Five nymph of Western flower thrips, Frankliniella occidentalis, were infested per repetition. The assessment of mortality was done three days after infestation. The percent control of the pesticidal composition Western flower thrips, Frankliniella occidentalis (Pergande), was determined as the “Observed” action, and compared to those obtained by using about 0.04 weight % of compound II, and using about 0.02 weight % of lambda-cyhalothrin alone. The “Colby's Expected Action” was calculated using Colby's equation as discussed previously.
The active compounds were formulated in a 10% acetone solution with 0.025% non-ionic surfactant, TWEEN® 20. Cotton leaf punches were used for bioassays. Two cotton leaf punches were placed in each solution and left there for 10 minutes. Leaves were taken out of the solution, placed on a piece of filter paper in separated Petri dishes, and air dried. Each leaf disc was considered a repetition. […]

[7] = tested on: brown stink bug, Euschistus heros; test: Diet treatment bioassay, second-instar nymphs; conditions: Compound II alone, 0.04 weight %
[8] = tested on: Lygus bug, Lygus hesperus (Knight); test: Treated string bean bioassay, four-day old nymphs; conditions: Compound II alone, 0.04 weight %
Protocol: String beans were treated with different active compounds for ten minutes. Three four-day old nymphs of Lygus bug, Lygus hesperus (Knight), were infested onto each bean sample.

[9] = tested on: stink bugs (Edessa meditabunda, Euschistus heros, and Piezodorus guildinii); conditions: Compound II alone, field test
Protocol: […] Silwet L-77 at 0.1% V/V was used as an adjuvant in the tank mix, and the application was done using a CO2 backpack sprayer. Trial was conducted under a natural stink bug infestation. […] The stink bug population consisted on about 75% Edessa meditabunda, 20% of Euschistus heros, and 5% Piezodorus guildinii.
This was about 48% improvement over the Colby's expected action.

[10] = Compound I alone (1:0), average of 0.0167, 0.0333 and 0.0667 weight %

CCN(C(=O)CCSCCC(F)(F)F)c1cn(-c2cccnc2)nc1Cl [Compound I, N-(3-chloro-1-(pyridin-3-yl)-1H-pyrazol-4-yl)-N-ethyl-3-((3,3,3-trifluoropropyl)thio)propanamide]
% Control Four Days After Treatment [1]: 17% | % Control Four Days After Treatment ([2]; 0.0306 weight %): 15.15% | % Control Four Days After Treatment ([2]; 0.0459 weight %): 15.15% | % Control Four Days After Treatment ([3]; Example 11A): 7.39% | % Control Four Days After Treatment ([3]; Example 11B): 11.94% | Average % Control [4, 10]: 9.34% | Average % Control [5, 10]: 6.93%

CCN(C(=O)CC[S+]([O-])CCC(F)(F)F)c1cn(-c2cccnc2)nc1Cl (stereo not drawn) [Compound II, N-(3-chloro-1-(pyridin-3-yl)-1H-pyrazol-4-yl)-N-ethyl-3-((3,3,3-trifluoropropyl)sulfinyl)propanamide]
% Control Three Days After Treatment [6]: 20% | % Control After Six Days of Treatment [7]: 0% | % Control Five Days After Treatment [8]: 25% | % Control Three Days After Treatment ([9]; 0.10 weight %): 12.5% | % Control Three Days After Treatment ([9]; 0.13 weight %): 18.8% | % Control Three Days After Treatment ([9]; 0.20 weight %): 6.3%

Cc1c(COC(=O)[C@@H]2[C@H](/C=C(\Cl)C(F)(F)F)C2(C)C)cccc1-c1ccccc1 (racemic) [Bifenthrin, bifenthrin, reference compound]
Average % Control ([4]; Bifenthrin alone (0:1), average of 0.0167 and 0.0333 weight %): 41.6%

CC1(C)C(C=C(Cl)Cl)C1C(=O)OC(C#N)c1cccc(Oc2ccccc2)c1 (stereo not drawn) [alpha-Cypermethrin, alpha-cypermethrin, reference compound]
Average % Control ([5]; alpha-Cypermethrin alone (0:1), average of 0.0167 and 0.0333 weight %): 21.1%
